Measured values from paper PMC6155608, “Substitution at the C-3 Position of Catechins Has an Influence on the Binding Affinities against Serum Albumin” (Molecules : A Journal of Synthetic Chemistry and Natural …, 2017).

How the values were obtained:
[1] = target: T1, bovine serum albumin (BSA) (Bos taurus, UniProt P02769); assay: Trp fluorescence quenching of BSA (Stern–Volmer analysis); type: binding; parameters: Kq value (Stern–Volmer quenching constant) against BSA: unit not given here; details: 0.3 mg/mL BSA; for Kq value (Stern–Volmer quenching constant) against BSA: 20 °C, 50 mM sodium phosphate buffer pH 7.0, excitation 280 nm, means ± SE
T1 construct: BSA (F-V) and HSA (F-V) were purchased from Nacalai Tesque (Kyoto, Japan); purchased Nacalai Tesque (Kyoto, Japan)
Description: The fluorescence spectra of another natural catechin was also measured (data not shown).
From the data obtained by fluorescence analysis, the Stern–Volmer quenching constants (Kq values) were calculated by the Stern–Volmer relationship.
(§1) Analysis of fluorescence quenching was performed as described previously. A series of mixtures was prepared with catechins or their derivatives at various concentrations (as indicated in each figure legend) and a fixed concentration of BSA (0.3 mg/mL). After the mixture was incubated at 20 °C for 20 min, the fluorescence spectrum of BSA in the mixture was measured at 20 °C in 50 mM sodium phosphate buffer (pH 7.0) at an excitation wavelength of 280 nm and with emission in the range 290–450 nm. All measurements were performed in triplicate. Fluorescence quenching data were analyzed by the Stern–Volmer equation (Equation (1)): F0 = F (1 + Kq × Q),(1) where F0 and F are the relative fluorescence intensities of BSA without and with catechin, respectively, Kq is the Stern–Volmer quenching constant, and Q is the concentration of catechin.

[2] = target: T2, human serum albumin (HSA) (Homo sapiens, UniProt P02768); assay: Trp fluorescence quenching of HSA (Stern–Volmer analysis); type: binding; parameters: unit not given here; details: 0.3 mg/mL HSA, excitation 280 nm; means ± SE
T2 construct: BSA (F-V) and HSA (F-V) were purchased from Nacalai Tesque (Kyoto, Japan); purchased Nacalai Tesque (Kyoto, Japan)
Description: Finally, we investigated the interaction between HSA and catechins and their derivatives (Figure 6). HSA has one Trp residue (Trp-214) located in drug-binding site I, and this residue behaves similarly to the Trp-213 of BSA [22]. […] Moreover, shift of the fluorescence peak wavelength against HSA was weaker than that against BSA.
as §1

T1 sequence (P02769 25-607): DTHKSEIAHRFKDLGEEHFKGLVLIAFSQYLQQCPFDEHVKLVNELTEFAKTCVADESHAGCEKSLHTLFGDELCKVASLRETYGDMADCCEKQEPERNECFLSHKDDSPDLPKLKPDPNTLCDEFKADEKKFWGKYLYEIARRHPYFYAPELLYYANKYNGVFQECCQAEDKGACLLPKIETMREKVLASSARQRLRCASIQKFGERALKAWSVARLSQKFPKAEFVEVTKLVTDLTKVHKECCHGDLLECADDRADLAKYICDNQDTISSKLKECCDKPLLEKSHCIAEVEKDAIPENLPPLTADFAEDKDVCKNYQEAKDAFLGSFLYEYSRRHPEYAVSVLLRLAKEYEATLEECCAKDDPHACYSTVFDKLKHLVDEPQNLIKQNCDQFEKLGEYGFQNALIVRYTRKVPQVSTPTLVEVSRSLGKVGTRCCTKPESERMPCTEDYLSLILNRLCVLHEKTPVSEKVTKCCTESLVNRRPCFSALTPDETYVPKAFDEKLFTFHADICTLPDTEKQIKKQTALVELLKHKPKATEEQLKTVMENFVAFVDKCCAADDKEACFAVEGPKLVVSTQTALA
T2 sequence (P02768 25-609): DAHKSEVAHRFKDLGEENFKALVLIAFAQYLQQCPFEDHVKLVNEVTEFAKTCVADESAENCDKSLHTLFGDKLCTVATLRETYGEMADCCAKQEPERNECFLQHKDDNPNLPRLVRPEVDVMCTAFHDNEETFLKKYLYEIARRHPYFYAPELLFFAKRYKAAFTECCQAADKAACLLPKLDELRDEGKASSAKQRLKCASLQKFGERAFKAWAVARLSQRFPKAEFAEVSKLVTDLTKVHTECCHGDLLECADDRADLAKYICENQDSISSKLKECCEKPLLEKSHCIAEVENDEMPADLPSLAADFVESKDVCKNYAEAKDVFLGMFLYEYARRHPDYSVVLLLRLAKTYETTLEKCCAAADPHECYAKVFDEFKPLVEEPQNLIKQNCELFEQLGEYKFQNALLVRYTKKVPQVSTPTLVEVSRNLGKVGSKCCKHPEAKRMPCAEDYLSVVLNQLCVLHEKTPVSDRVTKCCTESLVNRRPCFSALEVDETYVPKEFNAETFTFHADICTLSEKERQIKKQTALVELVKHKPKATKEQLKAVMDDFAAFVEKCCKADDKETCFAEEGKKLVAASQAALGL

Structure (SMILES)	Kq value (Stern–Volmer quenching constant) against BSA [1]	Kq value (Stern–Volmer quenching constant) against HSA [2]	effect on fluorescence intensity of Trp residues of BSA ([1]; excitation 280 nm)	shift of fluorescence peak wavelength of BSA ([1]; excitation 280 nm)
Oc1cc(O)c2c(c1)O[C@H](c1ccc(O)c(O)c1)[C@H](O)C2 [(−)-EC, epicatechin]	0.005 ± 0.0011	0.006 ± 0.0013	–	–
O=C(O[C@@H]1Cc2c(O)cc(O)cc2O[C@@H]1c1cc(O)c(O)c(O)c1)c1cc(O)c(O)c(O)c1 [EGCg, (−)-epigallocatechin gallate]	0.225 ± 0.0192	0.033 ± 0.0065	decreased in a dose-dependent manner	red-shifted
Oc1cc(O)c2c(c1)O[C@H](c1ccc(O)c(O)c1)[C@@H](O)C2 [(+)-C, catechin]	0.005 ± 0.0003	0.002 ± 0.0001	–	–
COc1cc(C(=O)O[C@@H]2Cc3c(O)cc(O)cc3O[C@@H]2c2cc(O)c(O)c(O)c2)cc(O)c1O [Methyl-EGCg, epigallocatechin-3-O-methyl gallate]	0.150 ± 0.0109	0.014 ± 0.0021	–	–
O=C(O[C@@H]1Cc2c(O)cc(O)cc2O[C@@H]1c1ccc(O)c(O)c1)c1cc(O)c(O)c(O)c1 [ECg]	0.060 ± 0.0118	0.007 ± 0.0011	–	–
O=C(O[C@H]1Cc2c(O)cc(O)cc2O[C@@H]1c1cc(O)c(O)c(O)c1)c1cc(O)c(O)c(O)c1 [GCg]	0.019 ± 0.0030	0.009 ± 0.0008	–	–
Oc1cc(O)c2c(c1)O[C@H](c1cc(O)c(O)c(O)c1)[C@H](O)C2 [EGC]	0.001 ± 0.0003	0.001 ± 0.0002	–	–
O=C(O[C@H]1Cc2c(O)cc(O)cc2O[C@@H]1c1ccc(O)c(O)c1)c1cc(O)c(O)c(O)c1 [Cg, (−)-catechin gallate]	0.034 ± 0.0092	0.011 ± 0.0011	–	–
Oc1cc(O)c2c(c1)O[C@H](c1cc(O)c(O)c(O)c1)[C@@H](O)C2 [GC]	0.001 ± 0.0001	0.001 ± 0.0001	–	–
